According to US20110105623A1 (Biogenic Innovations, LLC, priority 2009, published 2011):
Values joined by “and” are separate entries in the source; they are usually repeats but may differ in a detail not shown here. Equal values may be shown once. Read-outs that look alike come from different tables or passages of the source.

Legend:
[1] = tested on: Swine-like H1N1 Influenza A virus strain A/California/04/2009; type: cell-based
[2] = tested on: Rhinovirus type 14 (ATCC #VR-284); type: cell-based
[3] = tested on: Streptococcus Pyogenes (Lancefield group A, #10096); assay: Bacterial viability by bioluminescent ATP assay
[4] = tested on: Aspergillus niger; assay: USP Antimicrobial Effectiveness Test (AET), MSM in TSB; type: cell-based; design: key to AET microorganism count: Colonies too numerous to count (TNTC); details: for Log Reduction from Initial Microorganism Inoculum: 1:10 dilution of MSM, 14, 28 Days; for AET microorganism count: 48 hrs
Excerpt: Compounds or formulated products having antimicrobial activity may be evaluated with the United States Pharmacopeia (USP) Antimicrobial Effectiveness Test (AET). The AET involves the addition of specified microorganisms (Candida albicans, Aspergillus niger, Escherichia coli, Pseudomonas aeruginosa and Staphylococcus aureus) directly to a test product at relatively high concentrations to simulate contamination. The product is held for one month, with weekly analysis of microorganism levels. Depending on the route of administration of a product, satisfaction of the AET generally requires a 1 to 3 log reduction in bacteria from initial levels, which should occur in one to two weeks, with no further increase in bacteria after two weeks. For yeast and mold, no increase from the initial inoculums level is permitted.
Inoculations were made using Candida albicans, Aspergillus niger, Escherichia coli, Pseudomonas aeruginosa and Staphylococcus aureus. Tryptic soy broth (TSB) was used as the culturing media. […] The inoculated media was held for one month, during which time the added microorganisms were enumerated weekly to determine if they were growing, dying off, or remaining near the initial inoculation level. Data points were measured in triplicate at 48 hours, 3, 5, 14, 20, 28, and 30 days. The acceptance criteria for antimicrobial effectiveness are described in detail in the USP, herein incorporated by reference.

[5] = tested on: Salmonella typhimurium; assay: USP AET, MSM in TSB; type: cell-based; design: key: Colonies too numerous to count (TNTC); details: 48 hrs
[6] = tested on: Bifidobacterium bifidum ATCC #29521; assay: Growth in MRS broth + L-cysteine fortified with MSM
[7] = tested on: E. coli; assay: Log growth in Müller-Hinton media with or without NaCl; type: cell-based, Escherichia coli
Procedure: Standard Müller-Hinton media was compared to Müller-Hinton media supplemented with NaCl to the same level as the saline-based media of Example 4. […] After inoculation of each MSM-containing media type with 1.9×10^7 cfu/mL of E. coli, the cultures were incubated at 35° C. for seven days. Aliquots of each culture were taken at 24 and 48 hours, as well as 7 days.

[8] = tested on: Aspergillus niger; assay: USP <51> AET in cosmetic cream/composition; type: cell-based; details: 10% MSM in cosmetic cream without preservative, 48 hrs-28 days
[9] = log(inhibitor) vs. normalized response, variable slope
[10] = log(inhibitor) vs. normalized response, variable slope, dose in mM

Methylsulfonylmethane [MSM]
Average Log Stimulation [1]: 0.17log10
Average Percent Stimulation [1]: 32.39%
Average TCID50 [1]: 3.67log10 and 4.42log10 and 4.67log10 and 5.00log10 and 4.58log10 and 4.17log10
CPE at dilution −6 [1]: 0000
CPE at dilution −7 [1]: 0000
Log Stimulation [1]: 0.17log10
Percent Stimulation [1]: 32.39%
TCID50 [1]: 3.75log10 and 3.50log10 and 4.00log10 and 4.50log10 and 4.25log10 and 4.75log10 and 5.00log10
average percent reduction [1]: 93.08% and 90.00% and 61.10% and 78.12%
average log10 reduction ([1]; 1% MSM): 0.25 log10
average percent reduction ([1]; 1% MSM): 43.77%
average log10 reduction ([1]; 2% MSM): 0.41 log10
average percent reduction ([1]; 2% MSM): 61.10%
average log10 reduction ([1]; 3% MSM): 0.00 log10
average percent reduction ([1]; 3% MSM): 00.00%
average log10 reduction ([1]; 4% MSM): 0.16 log10
average percent reduction ([1]; 4% MSM): 30.82%
Response, % reduction ([1]; Dose 5.312 mM (log dose 0.7252581)): 91.680% and 53.230% and 73.700%
Response, % reduction ([1]; Dose 31.871 mM (log dose 1.503396)): 0.000%
Response, % reduction ([1]; Dose 53.118 mM (log dose 1.725242)): 53.230% and 73.700%
HillSlope, best-fit value [1, 9]: 0.2135
LogIC50, best-fit value [1, 10]: 0.7087
Average Log Stimulation [2]: 0.053log10 and 0.11log10
Average Percent Stimulation [2]: 11.49% and 22.38%
Average TCID50 [2]: 4.42log10 and 5.00log10 and 5.58log10 and 5.42log10 and 5.67log10 and 5.25log10
Log Stimulation [2]: 0.08log10 and 0.00log10 and 0.17log10
TCID50 [2]: 4.25log10 and 4.50log10 and 4.75log10 and 5.00log10 and 5.25log10 and 5.50log10 and 6.00log10 and 5.75log10
average log10 reduction ([2]; 1% MSM): 0.14 log10
average percent reduction ([2]; 1% MSM): 27.56%
average log10 reduction ([2]; 2% MSM): 0.42 log10
average percent reduction ([2]; 2% MSM): 61.98%
average log10 reduction ([2]; 3% MSM): 0.11 log10
average percent reduction ([2]; 3% MSM): 22.38%
average log10 reduction ([2]; 4% MSM): 0.28 log10
average percent reduction ([2]; 4% MSM): 47.52%
HillSlope, best-fit value [2, 9]: 0.6280
LogIC50, best-fit value [2, 10]: 1.582
IC50 [3]: 10.26%
Log Reduction from Initial Microorganism Inoculum ([4]; 14 days after inoculation): 4.3 log
Log Reduction from Initial Microorganism Inoculum ([4]; 28 days after inoculation): 4.5 log
AET microorganism count ([4]; 1:100 dilution of MSM): TNTC*
AET microorganism count ([4]; 1:1000 dilution of MSM): TNTC*
AET microorganism count ([5]; 1:100 dilution of MSM): TNTC
AET microorganism count ([5]; 1:1000 dilution of MSM): TNTC
Log Growth of Bifidobacteruim bifidum in Media Fortified with MSM ([6]; 0.125% MSM, Hr 0): 1.12 logs
Log Growth of Bifidobacteruim bifidum in Media Fortified with MSM ([6]; 0.125% MSM, Hr 8): 2.89 logs
Log Growth of Bifidobacteruim bifidum in Media Fortified with MSM ([6]; 0.125% MSM, Hr 16): 7.85 logs
Log Growth of Bifidobacteruim bifidum in Media Fortified with MSM ([6]; 0.125% MSM, Hr 24): 9.06 logs
Log Growth of Bifidobacteruim bifidum in Media Fortified with MSM ([6]; 0.125% MSM, Hr 32): 11.45 logs
Log Growth of Bifidobacteruim bifidum in Media Fortified with MSM ([6]; 0.125% MSM, Hr 40): 10.80 logs
Log Growth of Bifidobacteruim bifidum in Media Fortified with MSM ([6]; 0.125% MSM, Hr 48): 8.22 logs
Log Growth of Bifidobacteruim bifidum in Media Fortified with MSM ([6]; 0.125% MSM, Hr 56): 7.25 logs
Log Growth of Bifidobacteruim bifidum in Media Fortified with MSM ([6]; 0.125% MSM, Hr 64): 8.86 logs
Log Growth of Bifidobacteruim bifidum in Media Fortified with MSM ([6]; 0.125% MSM, Hr 72): 6.59 logs
Log Growth of Bifidobacteruim bifidum in Media Fortified with MSM ([6]; 0.125% MSM, Hr 80): 9.12 logs
Log Growth of Bifidobacteruim bifidum in Media Fortified with MSM ([6]; 0.125% MSM, Hr 88): 9.12 logs
Log Growth of Bifidobacteruim bifidum in Media Fortified with MSM ([6]; 0.125% MSM, Hr 96): <6.00 logs
Log Growth of Bifidobacteruim bifidum in Media Fortified with MSM ([6]; 0.5% MSM, Hr 0): 1.00 logs
Log Growth of Bifidobacteruim bifidum in Media Fortified with MSM ([6]; 0.5% MSM, Hr 8): 2.84 logs
Log Growth of Bifidobacteruim bifidum in Media Fortified with MSM ([6]; 0.5% MSM, Hr 16): 7.45 logs
Log Growth of Bifidobacteruim bifidum in Media Fortified with MSM ([6]; 0.5% MSM, Hr 24): 8.81 logs
Log Growth of Bifidobacteruim bifidum in Media Fortified with MSM ([6]; 0.5% MSM, Hr 32): 11.22 logs
Log Growth of Bifidobacteruim bifidum in Media Fortified with MSM ([6]; 0.5% MSM, Hr 40): 12.09 logs
Log Growth of Bifidobacteruim bifidum in Media Fortified with MSM ([6]; 0.5% MSM, Hr 48): 9.39 logs
Log Growth of Bifidobacteruim bifidum in Media Fortified with MSM ([6]; 0.5% MSM, Hr 56): 9.51 logs
Log Growth of Bifidobacteruim bifidum in Media Fortified with MSM ([6]; 0.5% MSM, Hr 64): 10.34 logs
Log Growth of Bifidobacteruim bifidum in Media Fortified with MSM ([6]; 0.5% MSM, Hr 72): 8.35 logs
Log Growth of Bifidobacteruim bifidum in Media Fortified with MSM ([6]; 0.5% MSM, Hr 80): 10.38 logs
Log Growth of Bifidobacteruim bifidum in Media Fortified with MSM ([6]; 0.5% MSM, Hr 88): 9.70 logs
Log Growth of Bifidobacteruim bifidum in Media Fortified with MSM ([6]; 0.5% MSM, Hr 96): 8.82 logs
log growth ([6]; 0.5% MSM, hour 96): 8.82 logs
log growth (estimated, outside the countable range) ([6]; 1% MSM, Hour 96): less than 6 logs
Log Growth of Bifidobacteruim bifidum in Media Fortified with MSM ([6]; 1% MSM, Hr 0): 1.00 logs
Log Growth of Bifidobacteruim bifidum in Media Fortified with MSM ([6]; 1% MSM, Hr 8): 2.73 logs
Log Growth of Bifidobacteruim bifidum in Media Fortified with MSM ([6]; 1% MSM, Hr 16): 7.73 logs
Log Growth of Bifidobacteruim bifidum in Media Fortified with MSM ([6]; 1% MSM, Hr 24): 8.81 logs
Log Growth of Bifidobacteruim bifidum in Media Fortified with MSM ([6]; 1% MSM, Hr 32): 11.49 logs
Log Growth of Bifidobacteruim bifidum in Media Fortified with MSM ([6]; 1% MSM, Hr 40): 11.19 logs
Log Growth of Bifidobacteruim bifidum in Media Fortified with MSM ([6]; 1% MSM, Hr 48): 10.43 logs
Log Growth of Bifidobacteruim bifidum in Media Fortified with MSM ([6]; 1% MSM, Hr 56): 10.57 logs
Log Growth of Bifidobacteruim bifidum in Media Fortified with MSM ([6]; 1% MSM, Hr 64): 10.66 logs
Log Growth of Bifidobacteruim bifidum in Media Fortified with MSM ([6]; 1% MSM, Hr 72): 8.34 logs
Log Growth of Bifidobacteruim bifidum in Media Fortified with MSM ([6]; 1% MSM, Hr 80): 9.43 logs
Log Growth of Bifidobacteruim bifidum in Media Fortified with MSM ([6]; 1% MSM, Hr 88): 10.41 logs
Log Growth of Bifidobacteruim bifidum in Media Fortified with MSM ([6]; 1% MSM, Hr 96): <6.00 logs
Log Growth of Bifidobacteruim bifidum in Media Fortified with MSM ([6]; 5% MSM, Hr 0): 1.12 logs
Log Growth of Bifidobacteruim bifidum in Media Fortified with MSM ([6]; 5% MSM, Hr 8): 2.04 logs
Log Growth of Bifidobacteruim bifidum in Media Fortified with MSM ([6]; 5% MSM, Hr 16): 6.10 logs
Log Growth of Bifidobacteruim bifidum in Media Fortified with MSM ([6]; 5% MSM, Hr 24): 8.43 logs
Log Growth of Bifidobacteruim bifidum in Media Fortified with MSM ([6]; 5% MSM, Hr 32): 11.13 logs
Log Growth of Bifidobacteruim bifidum in Media Fortified with MSM ([6]; 5% MSM, Hr 40): 11.78 logs
Log Growth of Bifidobacteruim bifidum in Media Fortified with MSM ([6]; 5% MSM, Hr 48): 10.70 logs
Log Growth of Bifidobacteruim bifidum in Media Fortified with MSM ([6]; 5% MSM, Hr 56): 10.59 logs
Log Growth of Bifidobacteruim bifidum in Media Fortified with MSM ([6]; 5% MSM, Hr 64): 14.32 logs
Log Growth of Bifidobacteruim bifidum in Media Fortified with MSM ([6]; 5% MSM, Hr 72): 8.65 logs
Log Growth of Bifidobacteruim bifidum in Media Fortified with MSM ([6]; 5% MSM, Hr 80): 12.20 logs
Log Growth of Bifidobacteruim bifidum in Media Fortified with MSM ([6]; 5% MSM, Hr 88): 12.31 logs
Log Growth of Bifidobacteruim bifidum in Media Fortified with MSM ([6]; 5% MSM, Hr 96): 9.60 logs
Log Growth of Bifidobacteruim bifidum in Media Fortified with MSM ([6]; […] MSM, Hr 96): <6.00 logs
maximum reached before the control ([6]; all MSM concentrations): 16 h
log reduction from the initial inoculum ([7]; 24 hours, all media, MSM greater than 13%): approximately 1 log
reduced E. coli growth by ([7]; 48 hours, MSM greater than 13%): 1-2 logs
log reduction in E. coli ([7]; 7 days, FMHS, 12% MSM): 3 log
AET microorganism count ([8]; 48 hours after inoculation): 8 × 10^3
AET microorganism count ([8]; 14 days after inoculation): 6 × 10^3
AET microorganism count ([8]; 28 days after inoculation): 5 × 10^2
